From patent EP0092073A1, “Magnesium salt of chenodeoxycholic acid and ursodeoxycholic acid, the process for its preparation, and therapeutic compositions which contain it as active principle” (SCHWARZ ITALIA S.p.A., priority 1982, dated 1983)

How the values were obtained:
Mus musculus = assay: Lethality and toxicity, endoperitoneal administration; assay type: in vivo; set-up: key to Toxic symptomatology Type: NN = no symptomatology; D = depression; conditions: for % mortality at the following times after administration 24 h / % mortality at the following times after administration 7 days / Toxic symptomatology Latency / Toxic symptomatology Type: endoperitoneal; for LD50 (mg/kg with reliability limits) 7 days after treatment: ip, probit method
Experimental: (§1) Unless otherwise specified, the research was carried out using: a) Mg-UCD capsules as such; b) the powdered contents of Mg-UCD capsules; CDCA (chenodeoxycholic acid) and UDCA (ursodeoxycholic acid) as pure substance which in all cases was partly dissolved and partly suspended under warm conditions (T = 30°C) in 10% gum arabic mucilage (so as to administer 10-40 ml of liquid per kg orally). In certain cases, namely in the experiments involving parenteral administration, the active principle of Mg-UCD, the chenodeoxycholic acid and ursodeoxycholic acid were dissolved in distilled water of slightly alkaline pH (5-10 ml/kg).
(§2) The generally acute lethality, toxicity and tolerability were determined by oral administration of the Mg-UCD (by gastric probe) in the Mus musculus, rat and dog. Animals of both sexes were used, none of which were pregnant. They were fasted for about 12 hours before treatment (but allowing them free access to water). The investigations were carried out using the Mg-UCD in powder form. Comparative investigations were carried out on the rat and Mus musculus using the active principle by endoperitoneal administration, and chenodeoxycholic acid and ursodeoxycholic acid by oral administration (using a gastric probe). Each dose was administered to 20 rats or Mus musculus (10 male and 10 female) and to eight dogs (4 male and 4 female). The animals were observed attentively during the 7 days following administration, and any lethality, toxic symptoms, disturbances, functional variations determinable with the eye, behaviour etc. were noted.
(§3) The LD50 was determined 7 days after administration using the probit method.

rat = assay: as above; assay type: in vivo; set-up: key to Toxic symptomatology Type: NN = no symptomatology; D = depression; conditions: for % mortality at the following times after administration 24 h / % mortality at the following times after administration 7 days / Toxic symptomatology Latency / Toxic symptomatology Type: endoperitoneal; for LD50 (mg/kg with reliability limits) 7 days after treatment: ip, probit method
Experimental: as §1, §2, §3

dog = assay: Acute lethality and toxicity, oral administration (gastric probe); assay type: in vivo; set-up: key to Toxic symptomatology Type: NN = no symptomatology; D = depression; conditions: for % mortality at following times after administration 24 h / % mortality at following times after administration 7 days / Toxic symptomatology Type / Toxic symptomatology Latency: oral; for LD50 (mg/kg with reliability limits) 7 days after treatment: po, also printed as greater than 600 Dts/kg
Solubility = assay type: physicochemical
[1] = Hydrolysis by the gastric juice; conditions: prodrug supplying its two component acids

Substance: double magnesium salt of chenodeoxycholic acid and ursodeoxycholic acid [Mg-UCD]
- % mortality at the following times after administration 24 h (Mus musculus; M. musculus F, 1000 mg/kg): 0%
- % mortality at the following times after administration 7 days (Mus musculus; M. musculus F, 1000 mg/kg): 0%
- Toxic symptomatology Latency (Mus musculus; M. musculus F, 1000 mg/kg): 1-2 min
- Toxic symptomatology Type (Mus musculus; M. musculus F, 1000 mg/kg): D
- % mortality at the following times after administration 24 h (Mus musculus; M. musculus F, 2000 mg/kg): 10%
- % mortality at the following times after administration 7 days (Mus musculus; M. musculus F, 2000 mg/kg): 10%
- Toxic symptomatology Latency (Mus musculus; M. musculus F, 2000 mg/kg): 1-2 min
- Toxic symptomatology Type (Mus musculus; M. musculus F, 2000 mg/kg): D
- % mortality at the following times after administration 24 h (Mus musculus; M. musculus F, 4000 mg/kg): 70%
- % mortality at the following times after administration 7 days (Mus musculus; M. musculus F, 4000 mg/kg): 70%
- Toxic symptomatology Latency (Mus musculus; M. musculus F, 4000 mg/kg): 1-2 min
- Toxic symptomatology Type (Mus musculus; M. musculus F, 4000 mg/kg): D
- LD50 (mg/kg with reliability limits) 7 days after treatment (Mus musculus; M. musculus F): 2455 (1984-3039) mg/kg
- % mortality at the following times after administration 24 h (Mus musculus; M. musculus M, 1000 mg/kg): 0%
- % mortality at the following times after administration 7 days (Mus musculus; M. musculus M, 1000 mg/kg): 0%
- Toxic symptomatology Latency (Mus musculus; M. musculus M, 1000 mg/kg): 1-2 min
- Toxic symptomatology Type (Mus musculus; M. musculus M, 1000 mg/kg): D
- % mortality at the following times after administration 24 h (Mus musculus; M. musculus M, 2000 mg/kg): 10%
- % mortality at the following times after administration 7 days (Mus musculus; M. musculus M, 2000 mg/kg): 10%
- Toxic symptomatology Latency (Mus musculus; M. musculus M, 2000 mg/kg): 1-2 min
- Toxic symptomatology Type (Mus musculus; M. musculus M, 2000 mg/kg): D
- % mortality at the following times after administration 24 h (Mus musculus; M. musculus M, 4000 mg/kg): 60%
- % mortality at the following times after administration 7 days (Mus musculus; M. musculus M, 4000 mg/kg): 60%
- Toxic symptomatology Latency (Mus musculus; M. musculus M, 4000 mg/kg): 1-2 min
- Toxic symptomatology Type (Mus musculus; M. musculus M, 4000 mg/kg): D
- LD50 (mg/kg with reliability limits) 7 days after treatment (Mus musculus; M. musculus M): 2455 (1984-3039) mg/kg
- % mortality at the following times after administration 24 h (rat; Rat F, 1000 mg/kg): 0%
- % mortality at the following times after administration 7 days (rat; Rat F, 1000 mg/kg): 0%
- Toxic symptomatology Latency (rat; Rat F, 1000 mg/kg): 1-2 min
- Toxic symptomatology Type (rat; Rat F, 1000 mg/kg): D
- % mortality at the following times after administration 24 h (rat; Rat F, 2000 mg/kg): 10%
- % mortality at the following times after administration 7 days (rat; Rat F, 2000 mg/kg): 10%
- Toxic symptomatology Latency (rat; Rat F, 2000 mg/kg): 1-2 min
- Toxic symptomatology Type (rat; Rat F, 2000 mg/kg): D
- % mortality at the following times after administration 24 h (rat; Rat F, 4000 mg/kg): 60%
- % mortality at the following times after administration 7 days (rat; Rat F, 4000 mg/kg): 60%
- Toxic symptomatology Latency (rat; Rat F, 4000 mg/kg): 1-2 min
- Toxic symptomatology Type (rat; Rat F, 4000 mg/kg): D
- LD50 (mg/kg with reliability limits) 7 days after treatment (rat; Rat F): 2449 (2063-2906) mg/kg
- % mortality at the following times after administration 24 h (rat; Rat M, 1000 mg/kg): 0%
- % mortality at the following times after administration 7 days (rat; Rat M, 1000 mg/kg): 0%
- Toxic symptomatology Latency (rat; Rat M, 1000 mg/kg): 1-2 min
- Toxic symptomatology Type (rat; Rat M, 1000 mg/kg): D
- % mortality at the following times after administration 24 h (rat; Rat M, 2000 mg/kg): 10%
- % mortality at the following times after administration 7 days (rat; Rat M, 2000 mg/kg): 10%
- Toxic symptomatology Latency (rat; Rat M, 2000 mg/kg): 1-2 min
- Toxic symptomatology Type (rat; Rat M, 2000 mg/kg): D
- % mortality at the following times after administration 24 h (rat; Rat M, 4000 mg/kg): 70%
- % mortality at the following times after administration 7 days (rat; Rat M, 4000 mg/kg): 70%
- Toxic symptomatology Latency (rat; Rat M, 4000 mg/kg): 1-2 min
- Toxic symptomatology Type (rat; Rat M, 4000 mg/kg): D
- LD50 (mg/kg with reliability limits) 7 days after treatment (rat; Rat M): 2288 (1902-2751) mg/kg
- % mortality at following times after administration 24 h (dog; Dog F, 250 mg/kg (60 Dts/kg)): 0%
- % mortality at following times after administration 7 days (dog; Dog F, 250 mg/kg (60 Dts/kg)): 0%
- Toxic symptomatology Type (dog; Dog F, 250 mg/kg (60 Dts/kg)): NN
- % mortality at following times after administration 24 h (dog; Dog F, 2500 mg/kg (600 Dts/kg)): 0%
- % mortality at following times after administration 7 days (dog; Dog F, 2500 mg/kg (600 Dts/kg)): 0%
- Toxic symptomatology Latency (dog; Dog F, 2500 mg/kg (600 Dts/kg)): 5-10 min
- Toxic symptomatology Type (dog; Dog F, 2500 mg/kg (600 Dts/kg)): D
- LD50 (mg/kg with reliability limits) 7 days after treatment (dog; Dog F): greater than 2500 mg/kg (greater than 600 Dts/kg)
- % mortality at following times after administration 24 h (dog; Dog M, 250 mg/kg (60 Dts/kg)): 0%
- % mortality at following times after administration 7 days (dog; Dog M, 250 mg/kg (60 Dts/kg)): 0%
- Toxic symptomatology Type (dog; Dog M, 250 mg/kg (60 Dts/kg)): NN
- % mortality at following times after administration 24 h (dog; Dog M, 2500 mg/kg (600 Dts/kg)): 0%
- % mortality at following times after administration 7 days (dog; Dog M, 2500 mg/kg (600 Dts/kg)): 0%
- Toxic symptomatology Latency (dog; Dog M, 2500 mg/kg (600 Dts/kg)): 5-10 min
- Toxic symptomatology Type (dog; Dog M, 2500 mg/kg (600 Dts/kg)): D
- LD50 (mg/kg with reliability limits) 7 days after treatment (dog; Dog M): greater than 2500 mg/kg (greater than 600 Dts/kg)
- any case of death or any significant toxic symptomatology (dog; dog, oral (gastric probe), 7 days following treatment, individual doses up to 2500 mg/kg of active principle (600 Dts/kg)): does not show
- Solubility (Solubility; in alcohol): fairly soluble in alcohol
- Solubility (Solubility; in water, listed as Mg salt): practically insoluble in water
- Solubility (Solubility; in water, listed as double salt): insoluble in water
- hydrolysis by the gastric juice [1]: hydrolysed slowly
